Experimental findings from US20100190778A1, “3,4-DIHYDROBENZO[1,2,3]THIADIAZINE-1,1-DIOXIDE DERIVATIVES, PROCESS FOR PREPARATION THEREOF, MEDICAMENTS CONTAINING SAID DERIVATIVES AND THEIR USE” (EGIS GYOGYSZERGYAR NYILVANOSAN MUKODO RESZVENTARSASAG, priority 2006, published 2010) are described below.

The term melting point denotes the temperature of the solid-liquid transition.

Molecules are shown by their SMILES.

Data set [1] has as its system male Sprague-Dawley rats. Put plainly: elevated maze test in the rat (anxiolytic effect). The data set is classed as in vivo. The following applies: per os, 60-min pretreatment, 5-min measurement, MED regarding time spent in the open arms and number of entries into the open arms. The procedure:
Pharmacological activity of the compounds of the general Formula (I) has been evaluated in elevated maze test in the rat.
The tests were carried out according to the method of S. Fellow and coworkers (J. Neurosci. Methods. 1985, 14, 149-167). During the test, a wooden-floor cross elevated by 50 cm from the ground was used. The length and the width of the arms of the cross were 100 and 15 cm, respectively. Two opposite arms of the cross are fitted at the ends and both sides with black plexiglass wall of 40 cm height (closed arms). The central section of the cross measuring 15 by 15 cm is open. The other two opposite arms of the cross are not provided with walls (open arms).
The tests were carried out in male Sprague-Dawley rats weighing 200 to 220 g. After the 60-min pretreatment time (per os treatment), animals were placed in the center of the maze. During the 5-min measurement time, four variables were recorded: the time spent in the open arms; the time spent in the closed arms; the number of entries into the open arms; the number of entries into the closed arms.
Animals normally avoid the open and light parts of the maze, thereby spending little time therein only. The anxiolytic effect of the compounds of the general Formula (I) is indicated by the increase in the time spent (in seconds) in the open arms and/or by the increase in the number of the entries into the open compartments of the maze. The minimum effective dose (MED) was determined for each tested compounds regarding the time spent in the open arms and the number of entries into the open arms. During the test, the known anxiolytic compound I-methyl-5-phenyl-7-chloro-1,3-dihydro-2H-1,4-benzodiazepin-2-one (INN: diazepam) of the Formula (IV)
was used. Treatment of the animals was carried out orally with the doses 0.1, 0.3, 1.0, 3.0 for diazepam and 0.01, 0.1, 1.0 mg/kg for the compounds of the general Formula (I).

As to `CN1C(=O)CN=C(c2ccccc2)c2cc(Cl)ccc21` [Diazepam, I-methyl-5-phenyl-7-chloro-1,3-dihydro-2H-1,4-benzodiazepin-2-one, reference compound], in data set [1], the “MED (minimum effective dose), anxiolytic effect in elevated maze test” value (from here on “MED (minimum effective dose)”) is 1.00 mg/kg p.o.

In turn, `CC1NNS(=O)(=O)c2cc(Cl)ccc21` (stereo not drawn) [Example 1, 7-chloro-4-methyl-3,4-dihydrobenzo[1,2,3]thiadiazine-1,1-dioxide] registered a melting point of 155 to 156 °C. Also, the “MED (minimum effective dose)” value in data set [1] came out at 0.3 mg/kg p.o.

`CC1NNS(=O)(=O)c2c1ccc(Cl)c2Cl` (stereo not drawn) [Example 3, 7,8-Dichloro-4-methyl-3,4-dihydrobenzo[1,2,3]thiadiazine-1,1-dioxide] displayed a melting point of 261 to 263 °C. The “MED (minimum effective dose)” value in data set [1] was determined as 0.01 mg/kg p.o.

Consider `Cc1cc(Cl)c(Cl)c2c1C(C)NNS2(=O)=O` (stereo not drawn) [Example 5, 7,8-Dichloro-4,5-dimethyl-3,4-dihydrobenzo[1,2,3]thiadiazine-1,1-dioxide], for which the melting point was in the range of 197 to 199 °C. In addition, in data set [1], the “MED (minimum effective dose)” value is 0.01 mg/kg p.o.

The compound `CC1NN(C)S(=O)(=O)c2c1ccc(Cl)c2Cl` (stereo not drawn) [Example 16, 7,8-Dichloro-2,4-dimethyl-3,4-dihydrobenzo[1,2,3]thiadiazine-1,1-dioxide] showed a melting point of 134 to 135 °C. In addition, the “MED (minimum effective dose)” value in data set [1] came to 0.01 mg/kg p.o.

`CN1NCc2ccc(Cl)c(Cl)c2S1(=O)=O` [Example 20, 7,8-Dichloro-2-methyl-3,4-dihydrobenzo[1,2,3]thiadiazine-1,1-dioxide] displayed a melting point of 124 to 125 °C. For the same compound, the “MED (minimum effective dose)” value in data set [1] was found to be 0.01 mg/kg p.o.

With `CCN1Cc2cc(OC)ccc2S(=O)(=O)N1C` [Example 40, 3-Ethyl-2-methyl-6-methoxy-3,4-dihydrobenzo[1,2,3]thiadiazine-1,1-dioxide], the melting point lay within 123 to 125 °C.

Regarding `CN1Cc2ccccc2S(=O)(=O)N1C` [Example 41, 2,3-Dimethyl-3,4-dihydrobenzo[1,2,3]thiadiazine-1,1-dioxide], the melting point lay within 143 to 145 °C.

`CCN1Cc2ccccc2S(=O)(=O)N1C` [Example 42, 3-Ethyl-2-methyl-3,4-dihydrobenzo[1,2,3]thiadiazine-1,1-dioxide] came in with a melting point of 140 to 142 °C.

Regarding `CC1c2ccc(Cl)c(Cl)c2S(=O)(=O)N(C)N1C` (stereo not drawn) [Example 43, 7,8-Dichloro-2,3,4-trimethyl-3,4-dihydrobenzo[1,2,3]thiadiazine-1,1-dioxide], the melting point lay within 135 to 136 °C.
